# Laboratory results from patent US11331369B2, “Endoparasitic depsipeptides” (Zoetis Services LLC, priority 2017, dated 2022).
# Tested on: microfilariae of Dirofilaria immitis
# Test: Dirofilaria immitis, Microfilaria (DiMF) In vitro Assay
# Type: cell-based
# Details: 72 h, read-out: DiMF Minimum Effective Dose (MED), approximately 72 hours incubation, microfilariae assessed for survival or paralysis
row,SMILES,minimal effective concentration
1,"Cc1nn(Cc2ccc(C[C@H]3OC(=O)[C@H](CC(C)C)N(C)C(=O)[C@@H](C)OC(=O)[C@H](CC(C)C)N(C)C(=O)[C@@H](Cc4ccc(Cn5cc(OC(C)C)c(C)n5)cc4)OC(=O)[C@H](CC(C)C)N(C)C(=O)[C@@H](C)OC(=O)[C@H](CC(C)C)N(C)C3=O)cc2)cc1OC(C)C [Example 1b-199, (3S,6R,9S,12R,15S,18R,21S,24R)-3,9,15,21-tetraisobutyl-6,18-bis[[4-[(4-isopropoxy-3-methyl-pyrazol-1-yl)methyl]phenyl]methyl]-4,10,12,16,22,24-hexamethyl-1,7,13,19-tetraoxa-4,10,16,22-tetrazacyclotetracosane-2,5,8,11,14,17,20,23-octaone]",0.01 to 0.1 µM
2,"CC(C)C[C@H]1C(=O)O[C@H](Cc2ccc(Cn3nccc3C3(N)CC3)cc2)C(=O)N(C)[C@@H](CC(C)C)C(=O)O[C@H](C)C(=O)N(C)[C@@H](CC(C)C)C(=O)O[C@H](Cc2ccc(Cn3nccc3C3(N)CC3)cc2)C(=O)N(C)[C@@H](CC(C)C)C(=O)O[C@H](C)C(=O)N1C [Example 1b-218, (3S,6R,9S,12R,15S,18R,21S,24R)-6,18-bis(4-((5-(1-aminocyclopropyl)-1H-pyrazol-1-yl)methyl)benzyl)-3,9,15,21-tetraisobutyl-4,10,12,16,22,24-hexamethyl-1,7,13,19-tetraoxa-4,10,16,22-tetraazacyclotetracosan-2,5,8,11,14,17,20,23-octaone]",0.01 to 0.1 µM
3,"CC(C)C[C@H]1C(=O)O[C@H](Cc2ccc(Cn3cc(-c4ccccc4)cn3)cc2)C(=O)N(C)[C@@H](CC(C)C)C(=O)O[C@H](C)C(=O)N(C)[C@@H](CC(C)C)C(=O)O[C@H](Cc2ccccc2)C(=O)N(C)[C@@H](CC(C)C)C(=O)O[C@H](C)C(=O)N1C [Example 2-3, (3S,6R,9S,12R,15S,18R,21S,24R)-6-benzyl-3,9,15,21-tetraisobutyl-4,10,12,16,22,24-hexamethyl-18-[[4-[(4-phenylpyrazol-1-yl)methyl]phenyl]methyl]-1,7,13,19-tetraoxa-4,10,16,22-tetrazacyclotetracosane-2,5,8,11,14,17,20,23-octaone]",0.01 to 0.1 µM
4,"CC(C)C[C@H]1C(=O)O[C@H](Cc2ccc(Cn3cc(-c4ccc(F)cc4)cn3)cc2)C(=O)N(C)[C@@H](CC(C)C)C(=O)O[C@H](C)C(=O)N(C)[C@@H](CC(C)C)C(=O)O[C@H](Cc2ccccc2)C(=O)N(C)[C@@H](CC(C)C)C(=O)O[C@H](C)C(=O)N1C [Example 2-5, (3S,6R,9S,12R,15S,18R,21S,24R)-6-benzyl-18-[[4-[[4-(4-fluorophenyl)pyrazol-1-yl]methyl]phenyl]methyl]-3,9,15,21-tetraisobutyl-4,10,12,16,22,24-hexamethyl-1,7,13,19-tetraoxa-4,10,16,22-tetrazacyclotetracosane-2,5,8,11,14,17,20,23-octaone]",0.01 to 0.1 µM
5,"CC(C)C[C@H]1C(=O)O[C@H](Cc2ccc(Cn3cc(C(C)(C)C)cn3)cc2)C(=O)N(C)[C@@H](CC(C)C)C(=O)O[C@H](C)C(=O)N(C)[C@@H](CC(C)C)C(=O)O[C@H](Cc2ccccc2)C(=O)N(C)[C@@H](CC(C)C)C(=O)O[C@H](C)C(=O)N1C [Example 2-8, (3S,6R,9S,12R,15S,18R,21S,24R)-6-benzyl-18-[[4-[(4-tert-butylpyrazol-1-yl)methyl]phenyl]methyl]-3,9,15,21-tetraisobutyl-4,10,12,16,22,24-hexamethyl-1,7,13,19-tetraoxa-4,10,16,22-tetrazacyclotetracosane-2,5,8,11,14,17,20,23-octaone]",0.01 to 0.1 µM
6,"CCc1cnn(Cc2ccc(C[C@H]3OC(=O)[C@H](CC(C)C)N(C)C(=O)[C@@H](C)OC(=O)[C@H](CC(C)C)N(C)C(=O)[C@@H](Cc4ccccc4)OC(=O)[C@H](CC(C)C)N(C)C(=O)[C@@H](C)OC(=O)[C@H](CC(C)C)N(C)C3=O)cc2)c1 [Example 2-9, (3S,6R,9S,12R,15S,18R,21S,24R)-6-benzyl-18-[[4-[(4-ethylpyrazol-1-yl)methyl]phenyl]methyl]-3,9,15,21-tetraisobutyl-4,10,12,16,22,24-hexamethyl-1,7,13,19-tetraoxa-4,10,16,22-tetrazacyclotetracosane-2,5,8,11,14,17,20,23-octaone]",0.01 to 0.1 µM
7,"Cc1nn(Cc2ccc(C[C@H]3OC(=O)[C@H](CC(C)C)N(C)C(=O)[C@@H](C)OC(=O)[C@H](CC(C)C)N(C)C(=O)[C@@H](Cc4ccccc4)OC(=O)[C@H](CC(C)C)N(C)C(=O)[C@@H](C)OC(=O)[C@H](CC(C)C)N(C)C3=O)cc2)c(C)c1C [Example 2-11, (3S,6R,9S,12R,15S,18R,21S,24R)-6-benzyl-3,9,15,21-tetraisobutyl-4,10,12,16,22,24-hexamethyl-18-(4-((3,4,5-trimethyl-1H-pyrazol-1-yl)methyl)benzyl)-1,7,13,19-tetraoxa-4,10,16,22-tetraazacyclotetracosan-2,5,8,11,14,17,20,23-octaone]",0.01 to 0.1 µM
8,"CCOC(=O)c1cnn(Cc2ccc(C[C@H]3OC(=O)[C@H](CC(C)C)N(C)C(=O)[C@@H](C)OC(=O)[C@H](CC(C)C)N(C)C(=O)[C@@H](Cc4ccccc4)OC(=O)[C@H](CC(C)C)N(C)C(=O)[C@@H](C)OC(=O)[C@H](CC(C)C)N(C)C3=O)cc2)c1 [Example 2-12, ethyl 1-(4-(((2R,5S,8R,11S,14R,17S,20R,23S)-14-benzyl-5,11,17,23-tetraisobutyl-4,8,10,16,20,22-hexamethyl-3,6,9,12,15,18,21,24-octaoxo-1,7,13,19-tetraoxa-4,10,16,22-tetraazacyclotetracosan-2-yl)methyl)benzyl)-1H-pyrazole-4-carboxylate]",0.001 to 0.01 µM
9,"CC(=O)c1cnn(Cc2ccc(C[C@H]3OC(=O)[C@H](CC(C)C)N(C)C(=O)[C@@H](C)OC(=O)[C@H](CC(C)C)N(C)C(=O)[C@@H](Cc4ccccc4)OC(=O)[C@H](CC(C)C)N(C)C(=O)[C@@H](C)OC(=O)[C@H](CC(C)C)N(C)C3=O)cc2)c1 [Example 2-13, (3S,6R,9S,12R,15S,18R,21S,24R)-6-(4-((4-acetyl-1H-pyrazol-1-yl)methyl)benzyl)-18-benzyl-3,9,15,21-tetraisobutyl-4,10,12,16,22,24-hexamethyl-1,7,13,19-tetraoxa-4,10,16,22-tetraazacyclotetracosan-2,5,8,11,14,17,20,23-octaone]",0.01 to 0.1 µM
10,"Cc1nn(Cc2ccc(C[C@H]3OC(=O)[C@H](CC(C)C)N(C)C(=O)[C@@H](C)OC(=O)[C@H](CC(C)C)N(C)C(=O)[C@@H](Cc4ccccc4)OC(=O)[C@H](CC(C)C)N(C)C(=O)[C@@H](C)OC(=O)[C@H](CC(C)C)N(C)C3=O)cc2)cc1Br [Example 2-16, (3S,6R,9S,12R,15S,18R,21S,24R)-6-benzyl-18-(4-((4-bromo-3-methyl-1H-pyrazol-1-yl)methyl)benzyl)-3,9,15,21-tetraisobutyl-4,10,12,16,22,24-hexamethyl-1,7,13,19-tetraoxa-4,10,16,22-tetraazacyclotetracosan-2,5,8,11,14,17,20,23-octaone]",0.01 to 0.1 µM
11,"Cc1nn(Cc2ccc(C[C@H]3OC(=O)[C@H](CC(C)C)N(C)C(=O)[C@@H](C)OC(=O)[C@H](CC(C)C)N(C)C(=O)[C@@H](Cc4ccccc4)OC(=O)[C@H](CC(C)C)N(C)C(=O)[C@@H](C)OC(=O)[C@H](CC(C)C)N(C)C3=O)cc2)c(C)c1Br [Example 2-17, (3S,6R,9S,12R,15S,18R,21S,24R)-6-benzyl-18-(4-((4-bromo-3,5-dimethyl-1H-pyrazol-1-yl)methyl)benzyl)-3,9,15,21-tetraisobutyl-4,10,12,16,22,24-hexamethyl-1,7,13,19-tetraoxa-4,10,16,22-tetraazacyclotetracosan-2,5,8,11,14,17,20,23-octaone]",0.01 to 0.1 µM
12,"CC(C)C[C@H]1C(=O)O[C@H](Cc2ccc(Cn3cc(C(F)F)cn3)cc2)C(=O)N(C)[C@@H](CC(C)C)C(=O)O[C@H](C)C(=O)N(C)[C@@H](CC(C)C)C(=O)O[C@H](Cc2ccccc2)C(=O)N(C)[C@@H](CC(C)C)C(=O)O[C@H](C)C(=O)N1C [Example 2-18, (3S,6R,9S,12R,15S,18R,21S,24R)-6-benzyl-18-(4-((4-(difluoromethyl)-1H-pyrazol-1-yl)methyl)benzyl)-3,9,15,21-tetraisobutyl-4,10,12,16,22,24-hexamethyl-1,7,13,19-tetraoxa-4,10,16,22-tetraazacyclotetracosan-2,5,8,11,14,17,20,23-octaone]",0.001 to 0.01 µM
13,"CC(C)C[C@H]1C(=O)O[C@H](Cc2ccc(Cn3cc(C(F)(F)F)cn3)cc2)C(=O)N(C)[C@@H](CC(C)C)C(=O)O[C@H](C)C(=O)N(C)[C@@H](CC(C)C)C(=O)O[C@H](Cc2ccccc2)C(=O)N(C)[C@@H](CC(C)C)C(=O)O[C@H](C)C(=O)N1C [Example 2-20, (3S,6R,9S,12R,15S,18R,21S,24R)-6-benzyl-3,9,15,21-tetraisobutyl-4,10,12,16,22,24-hexamethyl-18-(4-((4-(trifluoromethyl)-1H-pyrazol-1-yl)methyl)benzyl)-1,7,13,19-tetraoxa-4,10,16,22-tetraazacyclotetracosan-2,5,8,11,14,17,20,23-octaone]",0.01 to 0.1 µM
14,"CC(C)C[C@H]1C(=O)O[C@H](Cc2ccc(Cn3cc(S(=O)(=O)N4CCCCC4)cn3)cc2)C(=O)N(C)[C@@H](CC(C)C)C(=O)O[C@H](C)C(=O)N(C)[C@@H](CC(C)C)C(=O)O[C@H](Cc2ccccc2)C(=O)N(C)[C@@H](CC(C)C)C(=O)O[C@H](C)C(=O)N1C [Example 2-21, (3S,6R,9S,12R,15S,18R,21S,24R)-6-benzyl-3,9,15,21-tetraisobutyl-4,10,12,16,22,24-hexamethyl-18-(4-((4-(piperidin-1-ylsulfonyl)-1H-pyrazol-1-yl)methyl)benzyl)-1,7,13,19-tetraoxa-4,10,16,22-tetraazacyclotetracosan-2,5,8,11,14,17,20,23-octaone]",0.01 to 0.1 µM
